Assay results as given in ChEMBL document CHEMBL4480415, “Design and synthesis of potent myostatin inhibitory cyclic peptides” (Bioorg Med Chem, 2019).
Where a SMILES comes first, the peptide text is derived from it. Bridges are numbered along the chain shown (N, C = ends). The star is where a group is joined. Acetyl(2-naphthyloxy) = O=C(COc1ccc2ccccc2c1)*

Assay: Aqueous solubility of compound
Format: physicochemical
Details: buffer

CC[C@H](C)[C@H](NC(=O)[C@H](CCCNC(=N)N)NC(=O)[C@H](CO)NC(=O)[C@H](Cc1ccc(O)cc1)NC(=O)[C@H](CCCNC(=N)N)NC(=O)[C@@H]1CSSC[C@H](NC(=O)COc2ccc3ccccc3c2)C(=O)N[C@@H](CCC(N)=O)C(=O)N[C@@H](CC(N)=O)C(=O)N1)C(=O)N[C@@H](CCC(=O)O)C(=O)N[C@@H](Cc1c[nH]c2ccccc12)C(=O)N[C@H](C(=O)N[C@@H](CCCCN)C(=O)N[C@H](C(=O)N[C@@H](CCC(N)=O)C(=O)N[C@H](C(=O)N[C@H](C(=O)N[C@@H](CO)C(=O)N[C@@H](CCCCN)C(=O)N[C@@H](CC(C)C)C(=O)N[C@@H](CCCNC(=N)N)C(=O)N[C@@H](CC(C)C)C(N)=O)[C@@H](C)CC)[C@@H](C)CC)[C@@H](C)CC)[C@@H](C)CC ({Acetyl(2-naphthyloxy)}-CQNCRYSRIEWIKIQIISKLRL-NH2; disulfide 1-4)
solubility: Insoluble
